{"source": "patent US20080161403A1", "about": "“1-(1,2 Diphenyl-Ethyl)-3-(2-Hydroxyethyl)-Thiourea Compounds For Combating Animal Pests” (priority 2005, published 2008)", "system": "Spodoptera eridania", "experiment": "Southern armyworm (Spodoptera eridania), 2nd instar larvae, on dipped lima bean foliage", "format": "in vivo", "conditions": "300 ppm, at 5 days", "protocol": "The active compounds were formulated • a. for testing the activity against Aphis gossypii, Myzus persicae, and Aphis fabae, as 50:50 acetone:water solutions amended with 100 ppm Kinetic® (surfactant), • b. for testing the activity against Spodoptera eridania as a 10.000 ppm solution in a mixture of 35% acetone and water, which was diluted with water, if needed.\nAfter the experiments were completed, in each case the lowest concentration was determined at which the compound still caused an 75 to 100% inhibition or mortality in comparison with untreated controls (limit or minimal concentration).\nFoliage of two Sieva lima beans plants at the first expanded true-leaf stage that are contained within a single 3.8 cm square plastic pot are dipped into the test solution with agitation for 3 seconds and allowed to dry in a hood. The pot is then placed in a 25.4 cm plastic zipper top bag and infested with ten 2nd instar caterpillars. At 5 days, observations are made of mortality, reduced feeding, or any interference with normal molting.", "data": [{"smiles": "OCCNC(=S)NC(Cc1cccc(C(F)(F)F)c1)c1cc(Cl)ccc1Cl", "note": "(stereo not shown) [Example 77]", "values": [{"measurement": "mortality in comparison with untreated controls", "result": "over 75%"}]}]}
